Laboratory results reported in US20260365670A1, “EGFR INHIBITORS AND USES THEREOF” (DIZAL (JIANGSU) PHARMACEUTICAL CO., LTD., priority 2022, published 2026).
Read-outs that look alike come from different tables or passages of the source.

Columns and labels:
PC-9 = assay: Cell proliferation assay, PC-9 cells (CellTiter-Glo, 72 hours); format: cell-based; conditions: PC9 cells, CellTiter-Glo, read-out: PC9 GI50
In short: (§1)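 In RPMI1640 medium (PC-9 with 10% FBS), each cell line was seeded at its own density: Ba/F3 5000 and PC-9 500 per well. A compound series was added the next day, with a time-zero viability plate read in parallel. Percent proliferation was subtracted for G0 and referenced to DMSO, and GI50 was derived by curve fitting.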

[1] = molecular target: T1, EGFR[T790M/C797S/d746-750] (Homo sapiens, UniProt P00533, C797S/DEL746-750/T790M); assay: Inhibition of EGFR[T790M/C797S/d746-750] biochemical enzymatic activity (HTRF); conditions: EGFR T790M-C797S-Del19, 1 mM ATP, 1 h, room temperature, read-out: IC50 (nM) @T790M - C797S - Del19
T1 construct: purchased Carna Bio
In short: (§2)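 Phosphorylation of TK Substrate-biotin (1 μM) was measured at 1 mM ATP over a 1 h room-temperature incubation with serially varied compound. Detection was by HTRF ratio and analysis by 4PL fit to IC50.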

EGFR (d746-750 C797S) = molecular target: T2, EGFR (d746-750 C797S) (Homo sapiens, UniProt P00533, C797S/DEL746-750); assay: Inhibition of EGFR (d746-750 C797S) biochemical enzymatic activity (HTRF); conditions: EGFR Del19-C797S, 1 mM ATP, 1 h, room temperature, read-out: IC50 (nM) @Del19-C797S
T2 construct: purchased signalchem
In short: as §2

EGFR (C797S L858R) = molecular target: T3, EGFR (C797S L858R) (Homo sapiens, UniProt P00533, C797S/L858R); assay: Inhibition of EGFR (C797S L858R) biochemical enzymatic activity (HTRF); conditions: EGFR L858-C797S, 1 mM ATP, 1 h, room temperature, read-out: IC50 (nM) @L858-C797S
T3 construct: purchased signalchem
In short: as §2

EGFR L858R/T790M = molecular target: T4, EGFR L858R/T790M (Homo sapiens, UniProt P00533, L858R/T790M); assay: Inhibition of EGFR L858R/T790M biochemical enzymatic activity (HTRF); conditions: EGFR L858R-T790M, 1 mM ATP, 1 h, room temperature, read-out: IC50 (nM) @L858R-T790M
T4 construct: purchased Carna Bio
In short: as §2

EGFR[T790M/C797S/L858R] = molecular target: T5, EGFR[T790M/C797S/L858R] (Homo sapiens, UniProt P00533, C797S/L858R/T790M); assay: Inhibition of EGFR[T790M/C797S/L858R] biochemical enzymatic activity (HTRF); conditions: EGFR T790M-C797S-L858R, 1 mM ATP, 1 h, room temperature, read-out: IC50 (nM) @T790M- C797S - L858R
T5 construct: purchased Carna Bio
In short: as §2

A-431 = assay: Cell proliferation GI50, A-431 cells (Table 6); format: cell-based
[2] = test system: Ba/F3 cells expressing EGFR mutations; assay: Cell proliferation assay, Ba/F3 cells expressing EGFR mutations (CellTiter-Glo, 72 hours); format: cell-based; conditions: CellTiter-Glo
In short: as §1

EGFR Exon19Del = molecular target: T6, EGFR Exon19Del (Homo sapiens, UniProt P00533, DEL746-750); assay: Inhibition of EGFR Exon19Del biochemical enzymatic activity (HTRF); conditions: EGFR Del19, 1 mM ATP, 1 h, room temperature, read-out: IC50 @Del19
T6 construct: purchased Carna Bio
In short: as §2

EGFR Exon19Del/T790M = molecular target: T7, EGFR Exon19Del/T790M (Homo sapiens, UniProt P00533, DEL746-750/T790M); assay: Inhibition of EGFR Exon19Del/T790M biochemical enzymatic activity (HTRF); conditions: EGFR Del19-T790M, 1 mM ATP, 1 h, room temperature, read-out: IC50 (nM) @Del19-T790M
T7 construct: purchased Carna Bio
In short: as §2

EGFR L858R = molecular target: T8, EGFR L858R (Homo sapiens, UniProt P00533, L858R); assay: Inhibition of EGFR L858R biochemical enzymatic activity (HTRF); conditions: 1 mM ATP, 1 h, room temperature, read-out: IC50 (nM) @L858R
T8 construct: purchased Carna Bio
In short: as §2

EGFR wild type = molecular target: T9, EGFR wild type (Homo sapiens, UniProt P00533); assay: Inhibition of EGFR wild type biochemical enzymatic activity (HTRF); conditions: EGFR WT, 1 mM ATP, 1 h, room temperature, read-out: IC50 (nM) @WT
T9 construct: purchased Carna Bio
In short: as §2

[3] = BaF3 cells, EGFR DEL19-C797S, read-out: DEL19-C797S/BaF3 GI50
[4] = BaF3 cells, EGFR DEL19-T790-C797S, read-out: DEL19-T790-C797S/BaF3 GI50
[5] = BaF3 cells, EGFR L858R, read-out: L858R/BaF3 GI50
[6] = BaF3 cells, EGFR L858R-C797S, read-out: L858R-C797S/BaF3 GI50
[7] = BaF3 cells, EGFR L858R-T790-C797S, read-out: L858R-T790-C797S/BaF3 GI50
[8] = BaF3 cells, EGFR L858R-T790M, read-out: L858R-T790M/BaF3 GI50
[9] = EGFR DEL19-T790M, read-out: DEL19-T790M GI50
[10] = Homo sapiens, A-431, A-431 cells

T9 sequence (P00533 25-1210): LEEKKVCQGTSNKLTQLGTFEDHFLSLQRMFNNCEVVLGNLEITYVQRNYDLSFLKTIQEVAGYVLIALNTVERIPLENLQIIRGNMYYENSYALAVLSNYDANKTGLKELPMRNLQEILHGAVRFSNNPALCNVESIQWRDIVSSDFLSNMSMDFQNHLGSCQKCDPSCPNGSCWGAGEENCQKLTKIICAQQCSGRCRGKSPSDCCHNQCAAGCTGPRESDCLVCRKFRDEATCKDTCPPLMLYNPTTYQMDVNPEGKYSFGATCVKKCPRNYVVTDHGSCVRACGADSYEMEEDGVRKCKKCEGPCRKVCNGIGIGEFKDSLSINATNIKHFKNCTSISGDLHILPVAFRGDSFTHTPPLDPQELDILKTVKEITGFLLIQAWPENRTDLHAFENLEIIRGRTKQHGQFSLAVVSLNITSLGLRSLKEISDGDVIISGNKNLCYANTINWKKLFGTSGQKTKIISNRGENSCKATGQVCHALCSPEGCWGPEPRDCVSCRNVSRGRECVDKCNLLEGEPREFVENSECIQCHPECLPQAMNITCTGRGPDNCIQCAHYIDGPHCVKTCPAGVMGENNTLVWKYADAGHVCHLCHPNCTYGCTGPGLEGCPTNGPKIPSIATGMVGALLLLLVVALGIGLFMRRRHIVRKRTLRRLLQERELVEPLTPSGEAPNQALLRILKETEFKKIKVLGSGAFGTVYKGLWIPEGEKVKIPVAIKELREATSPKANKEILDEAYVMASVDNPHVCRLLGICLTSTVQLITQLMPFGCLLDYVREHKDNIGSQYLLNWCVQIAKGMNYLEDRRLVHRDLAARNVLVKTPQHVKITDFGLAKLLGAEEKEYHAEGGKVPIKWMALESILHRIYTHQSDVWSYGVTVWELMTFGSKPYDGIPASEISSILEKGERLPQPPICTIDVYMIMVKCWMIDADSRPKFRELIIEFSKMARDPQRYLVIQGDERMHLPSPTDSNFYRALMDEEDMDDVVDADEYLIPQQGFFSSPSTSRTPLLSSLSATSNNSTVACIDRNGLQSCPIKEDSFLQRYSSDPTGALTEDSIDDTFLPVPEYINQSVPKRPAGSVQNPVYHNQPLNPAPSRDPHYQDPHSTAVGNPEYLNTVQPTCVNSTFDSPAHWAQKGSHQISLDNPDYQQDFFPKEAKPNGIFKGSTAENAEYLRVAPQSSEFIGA
T2 sequence (P00533 with tags, fused parts or gaps DEL746-750/C797S limits assumed): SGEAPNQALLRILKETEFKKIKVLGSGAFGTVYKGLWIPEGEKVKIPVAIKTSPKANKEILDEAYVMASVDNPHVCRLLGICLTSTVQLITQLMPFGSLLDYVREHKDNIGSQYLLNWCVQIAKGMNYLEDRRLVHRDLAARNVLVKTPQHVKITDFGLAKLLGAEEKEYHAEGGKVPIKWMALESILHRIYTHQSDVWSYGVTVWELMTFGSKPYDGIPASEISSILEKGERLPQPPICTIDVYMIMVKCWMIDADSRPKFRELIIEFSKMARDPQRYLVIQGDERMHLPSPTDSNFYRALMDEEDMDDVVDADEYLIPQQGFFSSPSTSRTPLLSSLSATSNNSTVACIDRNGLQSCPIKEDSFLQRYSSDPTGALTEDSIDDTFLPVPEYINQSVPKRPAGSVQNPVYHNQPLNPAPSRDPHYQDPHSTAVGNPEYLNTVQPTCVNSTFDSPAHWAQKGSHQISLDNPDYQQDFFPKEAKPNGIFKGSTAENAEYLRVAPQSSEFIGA
T3 sequence (P00533 25-1210 C797S/L858R): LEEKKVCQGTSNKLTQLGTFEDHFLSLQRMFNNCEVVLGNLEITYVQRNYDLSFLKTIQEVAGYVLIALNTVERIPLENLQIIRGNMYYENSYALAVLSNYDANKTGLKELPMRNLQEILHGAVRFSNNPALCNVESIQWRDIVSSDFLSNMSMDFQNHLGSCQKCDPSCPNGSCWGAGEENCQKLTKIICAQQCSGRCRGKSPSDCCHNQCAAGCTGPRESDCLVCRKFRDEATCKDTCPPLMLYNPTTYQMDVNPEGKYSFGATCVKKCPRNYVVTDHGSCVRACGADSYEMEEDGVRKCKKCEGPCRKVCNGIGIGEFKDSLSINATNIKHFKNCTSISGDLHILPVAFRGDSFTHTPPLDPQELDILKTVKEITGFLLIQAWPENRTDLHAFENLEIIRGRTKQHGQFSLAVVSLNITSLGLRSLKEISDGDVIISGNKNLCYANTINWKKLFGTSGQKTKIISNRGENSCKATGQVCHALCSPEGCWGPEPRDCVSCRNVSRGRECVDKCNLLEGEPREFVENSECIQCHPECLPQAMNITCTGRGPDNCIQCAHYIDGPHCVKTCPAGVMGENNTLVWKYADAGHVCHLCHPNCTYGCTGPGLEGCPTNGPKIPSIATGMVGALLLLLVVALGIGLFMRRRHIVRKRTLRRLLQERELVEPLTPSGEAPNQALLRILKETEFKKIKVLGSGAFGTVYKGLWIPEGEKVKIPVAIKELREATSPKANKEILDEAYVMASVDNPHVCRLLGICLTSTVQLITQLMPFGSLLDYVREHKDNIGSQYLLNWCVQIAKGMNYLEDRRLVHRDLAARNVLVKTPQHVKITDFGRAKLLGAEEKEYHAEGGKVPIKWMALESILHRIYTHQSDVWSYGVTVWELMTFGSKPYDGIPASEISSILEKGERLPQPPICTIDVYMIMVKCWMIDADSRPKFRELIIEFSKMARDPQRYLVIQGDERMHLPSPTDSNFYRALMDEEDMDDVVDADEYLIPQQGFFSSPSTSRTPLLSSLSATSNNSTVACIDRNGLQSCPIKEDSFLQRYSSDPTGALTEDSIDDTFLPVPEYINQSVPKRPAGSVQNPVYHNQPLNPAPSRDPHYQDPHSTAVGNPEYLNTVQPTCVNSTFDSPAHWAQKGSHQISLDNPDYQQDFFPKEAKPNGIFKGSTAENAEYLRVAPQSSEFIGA
T1 sequence (P00533 with tags, fused parts or gaps DEL746-750/T790M/C797S limits assumed): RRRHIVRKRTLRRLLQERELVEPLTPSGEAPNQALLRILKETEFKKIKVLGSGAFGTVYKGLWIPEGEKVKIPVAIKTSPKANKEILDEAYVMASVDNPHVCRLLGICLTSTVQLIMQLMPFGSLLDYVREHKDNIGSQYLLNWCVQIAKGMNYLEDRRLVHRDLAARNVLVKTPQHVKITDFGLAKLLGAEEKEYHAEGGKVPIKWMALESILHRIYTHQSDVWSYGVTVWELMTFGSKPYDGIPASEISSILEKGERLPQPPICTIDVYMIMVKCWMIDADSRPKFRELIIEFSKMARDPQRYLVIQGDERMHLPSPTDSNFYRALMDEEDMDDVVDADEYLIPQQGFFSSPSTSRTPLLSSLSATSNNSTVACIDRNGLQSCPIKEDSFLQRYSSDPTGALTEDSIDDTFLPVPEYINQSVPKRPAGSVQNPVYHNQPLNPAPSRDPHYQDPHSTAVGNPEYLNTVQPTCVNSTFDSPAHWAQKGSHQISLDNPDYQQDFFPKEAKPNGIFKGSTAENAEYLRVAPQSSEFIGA
T7 sequence (P00533 with tags, fused parts or gaps DEL746-750/T790M limits assumed): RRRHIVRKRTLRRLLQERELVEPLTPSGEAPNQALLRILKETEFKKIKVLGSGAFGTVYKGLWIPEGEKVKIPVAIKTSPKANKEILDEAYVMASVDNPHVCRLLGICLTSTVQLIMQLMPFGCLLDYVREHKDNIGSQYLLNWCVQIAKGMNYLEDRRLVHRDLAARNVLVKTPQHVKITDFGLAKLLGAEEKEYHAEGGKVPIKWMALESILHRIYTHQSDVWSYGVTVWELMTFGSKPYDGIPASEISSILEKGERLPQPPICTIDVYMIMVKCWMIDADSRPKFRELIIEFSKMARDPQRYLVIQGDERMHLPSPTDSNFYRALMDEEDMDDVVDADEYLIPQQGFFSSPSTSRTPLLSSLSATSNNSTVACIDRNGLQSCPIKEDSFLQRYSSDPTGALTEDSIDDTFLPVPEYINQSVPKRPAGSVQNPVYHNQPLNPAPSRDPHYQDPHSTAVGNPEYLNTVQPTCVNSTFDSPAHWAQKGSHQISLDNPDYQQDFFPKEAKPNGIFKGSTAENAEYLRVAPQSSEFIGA
T6 sequence (P00533 with tags, fused parts or gaps DEL746-750 limits assumed): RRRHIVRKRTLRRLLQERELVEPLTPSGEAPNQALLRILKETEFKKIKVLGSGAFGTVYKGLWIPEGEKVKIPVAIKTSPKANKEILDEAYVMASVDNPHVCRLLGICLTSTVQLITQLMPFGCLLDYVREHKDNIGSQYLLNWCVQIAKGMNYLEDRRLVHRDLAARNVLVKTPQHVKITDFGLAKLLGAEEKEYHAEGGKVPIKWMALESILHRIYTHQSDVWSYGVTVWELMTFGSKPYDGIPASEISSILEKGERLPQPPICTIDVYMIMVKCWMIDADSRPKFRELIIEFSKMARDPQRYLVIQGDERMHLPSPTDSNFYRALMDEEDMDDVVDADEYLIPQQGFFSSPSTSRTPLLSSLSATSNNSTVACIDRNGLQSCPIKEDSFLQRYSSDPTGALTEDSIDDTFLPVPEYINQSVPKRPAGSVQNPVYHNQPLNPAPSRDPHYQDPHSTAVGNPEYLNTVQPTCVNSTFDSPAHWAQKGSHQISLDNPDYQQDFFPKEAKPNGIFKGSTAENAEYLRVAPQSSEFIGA

GI50 (PC-9)	IC50 [1]	IC50 (EGFR (d746-750 C797S))	IC50 (EGFR (C797S L858R))	IC50 (EGFR L858R/T790M)	IC50 (EGFR[T790M/C797S/L858R])	GI50 (A-431; A-431 cells)	GI50 [2, 3]	GI50 [2, 4]	GI50 [2, 5]	GI50 [2, 6]	GI50 [2, 7]	GI50 [2, 8]	GI50 [2, 9]	IC50 (EGFR Exon19Del)	IC50 (EGFR Exon19Del/T790M)	IC50 (EGFR L858R)	IC50 (EGFR wild type)	GI50 (A-431; [10])	SMILES
11 nM	5.1 nM	3.1 nM	8.8 nM	7.8 nM	6.7 nM	6140 nM	0.55 nM	1 nM	1.2 nM	3 nM	1 nM	4.2 nM	1 nM	3.2 nM	6.2 nM	7.2 nM	9.3 nM		CN1CCN(C2CCN(c3ccc4nc5n(c4c3)C34CCC(CN(CCOc6c(cnn6C)-c6cc(cn(C)c6=O)C(=O)N5)C3)C4)C2)CC1 (single isomer, unassigned) [Example A80B1, 15,21-Dimethyl-5-[3-(4-methylpiperazin-1-yl)pyrrolidin-1-yl]-23-oxa-2,9,11,15,20,21,26-heptaazaheptacyclo[24.4.1.1^{1,28}.1^{13,17}.0^{2,10}.0^{3,8}.0^{18,22}]tritriaconta-3,5,7,9,13,17(33),18(22),19-octaene-12,16-dione]
247 nM	> 5000 nM	389 nM	> 5000 nM	> 5000 nM	> 5000 nM		107 nM	258 nM	319 nM	170 nM	381 nM	350 nM	178 nM	404 nM	> 5000 nM	1530 nM	> 5000 nM	1320 nM	CN1CCC2(CCN(c3ccc4nc5n(c4c3)C34CCC(CN(CCOc6c(cnn6C)-c6cc(cn(C)c6=O)C(=O)N5)C3)C4)C2)C1 (single isomer, unassigned) [Example A81A]
6.9 nM	2.3 nM	1.7 nM	3.1 nM	2.3 nM	2.3 nM	667 nM	0.7 nM	2.8 nM	2.6 nM	2.7 nM	11 nM	12 nM	1.9 nM	1.8 nM	2.8 nM	3.2 nM	6.6 nM		CN1CCC2(CCN(c3ccc4nc5n(c4c3)C34CCC(CN(CCOc6c(cnn6C)-c6cc(cn(C)c6=O)C(=O)N5)C3)C4)C2)C1 (single isomer, unassigned) [Example A81B]
2.4 nM	2 nM	0.87 nM	1.4 nM	1.8 nM	1.7 nM		0.77 nM	0.86 nM	0.78 nM	0.68 nM	1 nM	0.82 nM	0.9 nM	1.1 nM	2.1 nM	0.87 nM	0.92 nM	203 nM	CN1CCC2(CCN(c3ccc4nc5n(c4c3)C34CCC(CN(CCOc6c(cnn6C)-c6cc(cn(C)c6=O)C(=O)N5)C3)C4)CC2)C1 (single isomer, unassigned) [Example A82B]
766 nM	> 5000 nM	577 nM	2600 nM	> 5000 nM	> 5000 nM	7760 nM	176 nM	789 nM	993 nM	468 nM	1090 nM	1130 nM	585 nM	428 nM	> 5000 nM	2020 nM	> 5000 nM		Cn1ncc2c1OCCN1CC3CCC(C3)(C1)n1c(nc3ccc(N4CCN(C5CC5)CC4)cc31)NC(=O)c1cc-2c(=O)n(C)c1 (single isomer, unassigned) [Example A83A]
20 nM	2.7 nM	0.96 nM	5 nM	2.8 nM	2.3 nM	1190 nM	0.7 nM	10 nM	13 nM	8.9 nM	15 nM	25 nM	10 nM	0.96 nM	2.7 nM	5 nM	83 nM		Cn1ncc2c1OCCN1CC3CCC(C3)(C1)n1c(nc3ccc(N4CCN(C5CC5)CC4)cc31)NC(=O)c1cc-2c(=O)n(C)c1 (single isomer, unassigned) [Example A83B]
214 nM	> 5000 nM	258 nM	1180 nM	> 5000 nM	> 5000 nM	3990 nM	98 nM	232 nM	311 nM	190 nM	362 nM	402 nM	171 nM	226 nM	> 5000 nM	830 nM	> 5000 nM		CN(C)C1CN(c2ccc3nc4n(c3c2)C23CCC(CN(CCOc5c(cnn5C)-c5cc(cn(C)c5=O)C(=O)N4)C2)C3)CC1F (single isomer, unassigned) [Example A84A, 15,21-Dimethyl-5-[4-fluoro-3-(N,N-dimethylamino)pyrrolidinyl]-23-oxa-2,9,11,15,20,21,26-heptaazaheptacyclo[24.4.1.1^{1,28}.1^{13,17}.0^{2,10}.0^{3,8}.0^{18,22}]tritriaconta-3,5,7,9,13,17(33),18(22),19-octaene-12,16-dione]
6.6 nM	2.5 nM	1.4 nM	4.8 nM	5 nM	3.5 nM	727 nM	0.72 nM	2.1 nM	2.1 nM	3.9 nM	6 nM	12 nM	2.7 nM	2.6 nM	3.4 nM	6.7 nM	57 nM		CN(C)C1CN(c2ccc3nc4n(c3c2)C23CCC(CN(CCOc5c(cnn5C)-c5cc(cn(C)c5=O)C(=O)N4)C2)C3)CC1F (single isomer, unassigned) [Example A84C, 15,21-Dimethyl-5-[4-fluoro-3-(N,N-dimethylamino)pyrrolidinyl]-23-oxa-2,9,11,15,20,21,26-heptaazaheptacyclo[24.4.1.1^{1,28}.1^{13,17}.0^{2,10}.0^{3,8}.0^{18,22}]tritriaconta-3,5,7,9,13,17(33),18(22),19-octaene-12,16-dione]
